# ± gives the expanded uncertainty stated by the source.
# What was measured:
# [1] = refractive index (Na D-line) (dimensionless); details: 298.15 K; 101.33 kPa; Liquid; Standard Abbe refractometry
# [2] = Liquid; for mass density / speed of sound: 298.15 K, 101.33 kPa; for speed of sound: Sing-around technique in a fixed-path interferometer
# [3] = xn = mol fraction of the nth substance listed; details: 298.15 K, 101.3 kPa, Liquid; for speed of sound: Sing-around technique in a fixed-path interferometer
# [4] = refractive index (Na D-line) (dimensionless); xn = mol fraction of the nth substance listed; details: 298.15 K, 101.3 kPa, Liquid, Standard Abbe refractometry
smiles,measurement,setting,value
CO [methanol],refractive index,[1],1.32634 ± 0.00072
same,mass density,[2],786.56 ± 0.31 kg/m3
same,speed of sound,[2],1101.8 ± 0.9 m/s
same,vapor or sublimation pressure,[2]; 337.9 K,101.3 ± 1 kPa
C=COC(C)=O [vinyl acetate],refractive index,[1],1.39253 ± 0.00073
same,mass density,[2],925.59 ± 0.25 kg/m3
same,speed of sound,[2],1115.6 ± 1 m/s
same,vapor or sublimation pressure,[2]; 346.1 K,101.3 ± 1 kPa
C=COC(=O)CC [vinyl propanoate],refractive index,[1],1.40153 ± 0.00073
same,mass density,[2],909.69 ± 0.26 kg/m3
same,speed of sound,[2],1133.9 ± 1 m/s
same,vapor or sublimation pressure,"[2]; 320.7 K, Ebulliometric method (Recirculating still)",17.5 ± 0.2 kPa
same,vapor or sublimation pressure,"[2]; 325.3 K, Ebulliometric method (Recirculating still)",21.5 ± 0.2 kPa
same,vapor or sublimation pressure,"[2]; 329.4 K, Ebulliometric method (Recirculating still)",25.5 ± 0.2 kPa
same,vapor or sublimation pressure,"[2]; 333 K, Ebulliometric method (Recirculating still)",29.5 ± 0.3 kPa
same,vapor or sublimation pressure,"[2]; 336.3 K, Ebulliometric method (Recirculating still)",33.5 ± 0.3 kPa
same,vapor or sublimation pressure,"[2]; 339.3 K, Ebulliometric method (Recirculating still)",37.5 ± 0.3 kPa
same,vapor or sublimation pressure,"[2]; 341.9 K, Ebulliometric method (Recirculating still)",41.5 ± 0.3 kPa
same,vapor or sublimation pressure,"[2]; 344.4 K, Ebulliometric method (Recirculating still)",45.5 ± 0.3 kPa
same,vapor or sublimation pressure,"[2]; 346.8 K, Ebulliometric method (Recirculating still)",49.5 ± 0.4 kPa
same,vapor or sublimation pressure,"[2]; 348.9 K, Ebulliometric method (Recirculating still)",53.5 ± 0.4 kPa
same,vapor or sublimation pressure,"[2]; 350.9 K, Ebulliometric method (Recirculating still)",57.5 ± 0.4 kPa
same,vapor or sublimation pressure,"[2]; 352.8 K, Ebulliometric method (Recirculating still)",61.5 ± 0.4 kPa
same,vapor or sublimation pressure,"[2]; 354.7 K, Ebulliometric method (Recirculating still)",65.5 ± 0.5 kPa
same,vapor or sublimation pressure,"[2]; 356.3 K, Ebulliometric method (Recirculating still)",69.5 ± 0.5 kPa
same,vapor or sublimation pressure,"[2]; 358 K, Ebulliometric method (Recirculating still)",73.5 ± 0.5 kPa
same,vapor or sublimation pressure,"[2]; 359.6 K, Ebulliometric method (Recirculating still)",77.5 ± 0.5 kPa
same,vapor or sublimation pressure,"[2]; 361.1 K, Ebulliometric method (Recirculating still)",81.5 ± 0.5 kPa
same,vapor or sublimation pressure,"[2]; 362.6 K, Ebulliometric method (Recirculating still)",85.5 ± 0.6 kPa
same,vapor or sublimation pressure,"[2]; 364 K, Ebulliometric method (Recirculating still)",89.5 ± 0.6 kPa
same,vapor or sublimation pressure,"[2]; 365.4 K, Ebulliometric method (Recirculating still)",93.5 ± 0.6 kPa
same,vapor or sublimation pressure,"[2]; 366.7 K, Ebulliometric method (Recirculating still)",97.5 ± 0.6 kPa
same,vapor or sublimation pressure,"[2]; 368 K, Ebulliometric method (Recirculating still)",101.3 ± 1 kPa
same,vapor or sublimation pressure,"[2]; 368.1 K, Ebulliometric method (Recirculating still)",101.3 ± 1 kPa
C=COC(=O)CC [vinyl propanoate] + C=COC(C)=O,speed of sound,[3]; x2 = 0.05,1132.8 ± 1 m/s
same,speed of sound,[3]; x2 = 0.102,1131.8 ± 1 m/s
same,speed of sound,[3]; x2 = 0.167,1130.5 ± 1 m/s
same,speed of sound,[3]; x2 = 0.207,1129.7 ± 1 m/s
same,speed of sound,[3]; x2 = 0.264,1128.6 ± 1 m/s
same,speed of sound,[3]; x2 = 0.297,1128 ± 1 m/s
same,speed of sound,[3]; x2 = 0.354,1126.9 ± 1 m/s
same,speed of sound,[3]; x2 = 0.403,1126 ± 1 m/s
same,speed of sound,[3]; x2 = 0.466,1124.9 ± 1 m/s
same,speed of sound,[3]; x2 = 0.504,1124.2 ± 1 m/s
same,speed of sound,[3]; x2 = 0.545,1123.4 ± 1 m/s
same,speed of sound,[3]; x2 = 0.601,1122.4 ± 1 m/s
same,speed of sound,[3]; x2 = 0.65,1121.6 ± 1 m/s
same,speed of sound,[3]; x2 = 0.696,1120.8 ± 1 m/s
same,speed of sound,[3]; x2 = 0.753,1119.8 ± 1 m/s
same,speed of sound,[3]; x2 = 0.8,1119 ± 1 m/s
same,speed of sound,[3]; x2 = 0.839,1118.3 ± 1 m/s
same,speed of sound,[3]; x2 = 0.901,1117.2 ± 1 m/s
same,speed of sound,[3]; x2 = 0.955,1116.3 ± 1 m/s
same,mass density,[3]; x2 = 0.05,910.31 ± 0.25 kg/m3
same,mass density,[3]; x2 = 0.102,911.01 ± 0.25 kg/m3
same,mass density,[3]; x2 = 0.167,911.87 ± 0.25 kg/m3
same,mass density,[3]; x2 = 0.207,912.4 ± 0.25 kg/m3
same,mass density,[3]; x2 = 0.264,913.2 ± 0.25 kg/m3
same,mass density,[3]; x2 = 0.297,913.66 ± 0.25 kg/m3
same,mass density,[3]; x2 = 0.354,914.5 ± 0.25 kg/m3
same,mass density,[3]; x2 = 0.403,915.25 ± 0.25 kg/m3
same,mass density,[3]; x2 = 0.466,916.22 ± 0.25 kg/m3
same,mass density,[3]; x2 = 0.504,916.8 ± 0.25 kg/m3
same,mass density,[3]; x2 = 0.545,917.48 ± 0.25 kg/m3
same,mass density,[3]; x2 = 0.601,918.39 ± 0.25 kg/m3
same,mass density,[3]; x2 = 0.65,919.18 ± 0.25 kg/m3
same,mass density,[3]; x2 = 0.696,919.96 ± 0.25 kg/m3
same,mass density,[3]; x2 = 0.753,920.95 ± 0.25 kg/m3
same,mass density,[3]; x2 = 0.8,921.79 ± 0.25 kg/m3
same,mass density,[3]; x2 = 0.839,922.51 ± 0.25 kg/m3
same,mass density,[3]; x2 = 0.901,923.67 ± 0.25 kg/m3
same,mass density,[3]; x2 = 0.955,924.72 ± 0.25 kg/m3
same,refractive index,[4]; x2 = 0.05,1.40114 ± 0.00073
same,refractive index,[4]; x2 = 0.102,1.4007 ± 0.00073
same,refractive index,[4]; x2 = 0.167,1.40017 ± 0.00073
same,refractive index,[4]; x2 = 0.207,1.39986 ± 0.00073
same,refractive index,[4]; x2 = 0.264,1.39937 ± 0.00073
same,refractive index,[4]; x2 = 0.297,1.39906 ± 0.00073
same,refractive index,[4]; x2 = 0.354,1.3985 ± 0.00073
same,refractive index,[4]; x2 = 0.403,1.39817 ± 0.00073
same,refractive index,[4]; x2 = 0.466,1.39762 ± 0.00073
same,refractive index,[4]; x2 = 0.504,1.3973 ± 0.00073
same,refractive index,[4]; x2 = 0.545,1.3969 ± 0.00073
same,refractive index,[4]; x2 = 0.601,1.3964 ± 0.00073
same,refractive index,[4]; x2 = 0.65,1.39591 ± 0.00073
same,refractive index,[4]; x2 = 0.696,1.39554 ± 0.00073
same,refractive index,[4]; x2 = 0.753,1.39493 ± 0.00073
same,refractive index,[4]; x2 = 0.8,1.39456 ± 0.00073
same,refractive index,[4]; x2 = 0.839,1.3941 ± 0.00073
same,refractive index,[4]; x2 = 0.901,1.39358 ± 0.00073
same,refractive index,[4]; x2 = 0.955,1.39295 ± 0.00073
C=COC(=O)CC [vinyl propanoate] + CO,speed of sound,[3]; x2 = 0.05,1132.9 ± 1 m/s
same,speed of sound,[3]; x2 = 0.101,1131.7 ± 1 m/s
same,speed of sound,[3]; x2 = 0.168,1130.2 ± 1 m/s
same,speed of sound,[3]; x2 = 0.198,1129.5 ± 1 m/s
same,speed of sound,[3]; x2 = 0.242,1128.4 ± 1 m/s
same,speed of sound,[3]; x2 = 0.311,1126.7 ± 1 m/s
same,speed of sound,[3]; x2 = 0.337,1126 ± 1 m/s
same,speed of sound,[3]; x2 = 0.39,1124.6 ± 1 m/s
same,speed of sound,[3]; x2 = 0.452,1122.8 ± 1 m/s
same,speed of sound,[3]; x2 = 0.526,1120.5 ± 1 m/s
same,speed of sound,[3]; x2 = 0.547,1119.8 ± 1 m/s
same,speed of sound,[3]; x2 = 0.597,1118 ± 1 m/s
same,speed of sound,[3]; x2 = 0.657,1115.9 ± 0.9 m/s
same,speed of sound,[3]; x2 = 0.708,1114.1 ± 0.9 m/s
same,speed of sound,[3]; x2 = 0.748,1112.6 ± 0.9 m/s
same,speed of sound,[3]; x2 = 0.8,1110.7 ± 0.9 m/s
same,speed of sound,[3]; x2 = 0.85,1108.7 ± 0.9 m/s
same,speed of sound,[3]; x2 = 0.899,1106.5 ± 0.9 m/s
same,speed of sound,[3]; x2 = 0.949,1104.9 ± 0.9 m/s
same,mass density,[3]; x2 = 0.05,907.45 ± 0.25 kg/m3
same,mass density,[3]; x2 = 0.101,905 ± 0.25 kg/m3
same,mass density,[3]; x2 = 0.168,901.52 ± 0.25 kg/m3
same,mass density,[3]; x2 = 0.198,899.81 ± 0.25 kg/m3
same,mass density,[3]; x2 = 0.242,897.25 ± 0.25 kg/m3
same,mass density,[3]; x2 = 0.311,892.66 ± 0.25 kg/m3
same,mass density,[3]; x2 = 0.337,890.92 ± 0.25 kg/m3
same,mass density,[3]; x2 = 0.39,886.94 ± 0.25 kg/m3
same,mass density,[3]; x2 = 0.452,881.8 ± 0.25 kg/m3
same,mass density,[3]; x2 = 0.526,874.78 ± 0.25 kg/m3
same,mass density,[3]; x2 = 0.547,872.66 ± 0.25 kg/m3
same,mass density,[3]; x2 = 0.597,867.2 ± 0.26 kg/m3
same,mass density,[3]; x2 = 0.657,859.7 ± 0.26 kg/m3
same,mass density,[3]; x2 = 0.708,852.65 ± 0.26 kg/m3
same,mass density,[3]; x2 = 0.748,846.29 ± 0.27 kg/m3
same,mass density,[3]; x2 = 0.8,837.26 ± 0.27 kg/m3
same,mass density,[3]; x2 = 0.85,827.36 ± 0.28 kg/m3
same,mass density,[3]; x2 = 0.899,816.21 ± 0.28 kg/m3
same,mass density,[3]; x2 = 0.949,803.01 ± 0.29 kg/m3
same,refractive index,[4]; x2 = 0.05,1.40022 ± 0.00073
same,refractive index,[4]; x2 = 0.101,1.39881 ± 0.00073
same,refractive index,[4]; x2 = 0.168,1.3968 ± 0.00072
same,refractive index,[4]; x2 = 0.198,1.39573 ± 0.00072
same,refractive index,[4]; x2 = 0.242,1.39416 ± 0.00072
same,refractive index,[4]; x2 = 0.311,1.39141 ± 0.00072
same,refractive index,[4]; x2 = 0.337,1.39039 ± 0.00072
same,refractive index,[4]; x2 = 0.39,1.38789 ± 0.00072
same,refractive index,[4]; x2 = 0.452,1.38474 ± 0.00072
same,refractive index,[4]; x2 = 0.526,1.38044 ± 0.00072
same,refractive index,[4]; x2 = 0.547,1.37911 ± 0.00072
same,refractive index,[4]; x2 = 0.597,1.37583 ± 0.00072
same,refractive index,[4]; x2 = 0.657,1.37115 ± 0.00072
same,refractive index,[4]; x2 = 0.708,1.36685 ± 0.00072
same,refractive index,[4]; x2 = 0.748,1.36283 ± 0.00072
same,refractive index,[4]; x2 = 0.8,1.35725 ± 0.00072
same,refractive index,[4]; x2 = 0.85,1.3512 ± 0.00072
same,refractive index,[4]; x2 = 0.899,1.34444 ± 0.00072
same,refractive index,[4]; x2 = 0.949,1.33649 ± 0.00072
